The values that follow come from ChEMBL document CHEMBL1201862, “PubChem BioAssay data set” (2004).

Test [1] addresses Heat shock protein HSP 90-alpha (Homo sapiens, UniProt P07900). The format is functional, organism-based.
For the next test, the target named is T1, Caspase-3 (Homo sapiens, UniProt P42574).
T1 sequence (P42574 whole entry): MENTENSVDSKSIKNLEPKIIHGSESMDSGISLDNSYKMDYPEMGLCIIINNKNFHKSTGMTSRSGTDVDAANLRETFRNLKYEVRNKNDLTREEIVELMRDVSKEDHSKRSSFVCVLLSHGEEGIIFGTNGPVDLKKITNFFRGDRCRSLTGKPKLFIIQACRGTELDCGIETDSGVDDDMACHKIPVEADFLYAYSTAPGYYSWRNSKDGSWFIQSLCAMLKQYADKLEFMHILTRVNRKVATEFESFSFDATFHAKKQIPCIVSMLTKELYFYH
The test is described as follows: human caspase-3 protease activity blockade – biochemical, fluorescence, cherry-picked samples, selectivity assay for caspase-6 allosteric inhibitor project, dose response (AID 743291).

The test system of a further test is BJ. The test is described as follows: BJ-TERT-LT-ST fibroblast viability loss – cell-based, RAS-independent, luminescence, dose response (AID 1935).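 Also: BJ fibroblasts immortalized with TERT plus LT and ST oncogenes.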 It counts as functional. The following applies: Homo sapiens.
Test [2] is described as follows: Luminescence Cell-Based Dose Confirmation HTS to Identify Inhibitors of Platelet Dense Granule Release. [Related pubchem assays: 1663 (Primary HTS), 1678 (Summary of Project)]. The format is functional.
The subject of another test is INS1. Description: INS-1E survival protection against cytokine death – cell-based, luminescence, retest, dose response (AID 449756).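 Also: cell death triggered by IL-1 beta plus TNF-alpha plus IFN-gamma mixture; protective hits raise ATP signal compared with cytokine alone wells.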 The format is functional. The following applies: Rattus norvegicus.
Test [3] addresses T2, Short transient receptor potential channel 4 (Mus musculus, UniProt Q9QUQ5).
T2 sequence (Q9QUQ5 whole entry): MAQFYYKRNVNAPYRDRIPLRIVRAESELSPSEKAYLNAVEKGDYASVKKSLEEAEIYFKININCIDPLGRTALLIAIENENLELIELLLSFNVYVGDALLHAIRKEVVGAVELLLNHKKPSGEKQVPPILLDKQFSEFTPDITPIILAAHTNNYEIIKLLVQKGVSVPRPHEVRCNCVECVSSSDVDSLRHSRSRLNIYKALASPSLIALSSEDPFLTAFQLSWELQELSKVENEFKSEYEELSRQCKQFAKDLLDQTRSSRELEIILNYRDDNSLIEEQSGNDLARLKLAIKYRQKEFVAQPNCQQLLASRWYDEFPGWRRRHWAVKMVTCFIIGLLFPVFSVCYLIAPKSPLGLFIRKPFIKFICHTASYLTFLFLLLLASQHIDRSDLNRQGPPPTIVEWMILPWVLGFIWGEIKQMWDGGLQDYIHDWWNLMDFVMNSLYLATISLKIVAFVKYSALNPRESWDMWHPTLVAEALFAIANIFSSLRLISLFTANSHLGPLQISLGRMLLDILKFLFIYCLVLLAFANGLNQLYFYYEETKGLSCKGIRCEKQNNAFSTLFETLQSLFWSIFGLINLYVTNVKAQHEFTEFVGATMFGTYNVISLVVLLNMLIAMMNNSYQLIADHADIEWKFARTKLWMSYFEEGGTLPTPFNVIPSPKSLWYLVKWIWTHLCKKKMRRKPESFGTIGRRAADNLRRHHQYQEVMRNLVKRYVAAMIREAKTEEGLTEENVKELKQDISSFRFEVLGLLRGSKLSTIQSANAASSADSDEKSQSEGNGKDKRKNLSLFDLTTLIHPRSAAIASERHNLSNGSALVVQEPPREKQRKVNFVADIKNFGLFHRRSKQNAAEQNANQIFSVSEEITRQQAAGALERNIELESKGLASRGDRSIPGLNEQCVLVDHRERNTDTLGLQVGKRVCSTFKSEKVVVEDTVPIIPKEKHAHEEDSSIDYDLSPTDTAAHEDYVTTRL
The test is described as follows: calcium entry via TRPC4 opening agents – cell-based, HEK293 TRPC4/mu-opioid, Fluo-4 calcium, dose response (AID 434937). The format is functional.

Test [4] is described as follows: loss of viability in HepG2 cells – cell-based, CellTiter-Glo, cherry-picked, cytotoxicity control for Shn3 inhibitor project, dose response (AID 624134). The format is functional. (In general: In ATP-based viability assays light output follows the ATP content of the culture.)
The next test concerns HEK293. Description: optical interference in Abeta FP readout, dose response, artefact control for IDE activator project, biochemical, fluorescence polarization (AID 588442). It counts as functional, cell-based. The following applies: Homo sapiens.
The target in test [5] is T3, Ubiquitin-conjugating enzyme E2 N (Homo sapiens, UniProt P61088).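 Also: Dose-response confirmation in a TR-FRET assay detecting UBC13-driven polyubiquitin chain formation, inhibition measured.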
T3 sequence (P61088 whole entry): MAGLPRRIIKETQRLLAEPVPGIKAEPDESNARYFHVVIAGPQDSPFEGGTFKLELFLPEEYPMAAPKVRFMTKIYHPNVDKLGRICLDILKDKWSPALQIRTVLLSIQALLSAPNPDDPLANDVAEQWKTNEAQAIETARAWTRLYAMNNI
It counts as functional.

Test [6] deals with Receptor tyrosine-protein kinase erbB-4 (Homo sapiens, UniProt Q15303). The format is functional.
For test [7], the target named is Serine/threonine-protein kinase pim-1 (Homo sapiens, UniProt P11309). It counts as functional.
Serine/threonine-protein kinase pim-1, sequence (P11309 whole entry): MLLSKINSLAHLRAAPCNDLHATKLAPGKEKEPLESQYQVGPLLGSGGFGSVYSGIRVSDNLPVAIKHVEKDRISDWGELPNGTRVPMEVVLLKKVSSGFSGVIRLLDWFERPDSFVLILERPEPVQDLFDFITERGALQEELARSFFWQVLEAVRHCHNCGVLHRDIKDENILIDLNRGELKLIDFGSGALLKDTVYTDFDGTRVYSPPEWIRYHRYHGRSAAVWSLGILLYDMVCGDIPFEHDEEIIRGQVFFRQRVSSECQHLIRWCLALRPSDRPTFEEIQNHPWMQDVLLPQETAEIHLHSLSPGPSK
The target in test [8] is Non-receptor tyrosine-protein kinase TYK2 (Homo sapiens, UniProt P29597). It counts as functional.
Non-receptor tyrosine-protein kinase TYK2, sequence (P29597 whole entry): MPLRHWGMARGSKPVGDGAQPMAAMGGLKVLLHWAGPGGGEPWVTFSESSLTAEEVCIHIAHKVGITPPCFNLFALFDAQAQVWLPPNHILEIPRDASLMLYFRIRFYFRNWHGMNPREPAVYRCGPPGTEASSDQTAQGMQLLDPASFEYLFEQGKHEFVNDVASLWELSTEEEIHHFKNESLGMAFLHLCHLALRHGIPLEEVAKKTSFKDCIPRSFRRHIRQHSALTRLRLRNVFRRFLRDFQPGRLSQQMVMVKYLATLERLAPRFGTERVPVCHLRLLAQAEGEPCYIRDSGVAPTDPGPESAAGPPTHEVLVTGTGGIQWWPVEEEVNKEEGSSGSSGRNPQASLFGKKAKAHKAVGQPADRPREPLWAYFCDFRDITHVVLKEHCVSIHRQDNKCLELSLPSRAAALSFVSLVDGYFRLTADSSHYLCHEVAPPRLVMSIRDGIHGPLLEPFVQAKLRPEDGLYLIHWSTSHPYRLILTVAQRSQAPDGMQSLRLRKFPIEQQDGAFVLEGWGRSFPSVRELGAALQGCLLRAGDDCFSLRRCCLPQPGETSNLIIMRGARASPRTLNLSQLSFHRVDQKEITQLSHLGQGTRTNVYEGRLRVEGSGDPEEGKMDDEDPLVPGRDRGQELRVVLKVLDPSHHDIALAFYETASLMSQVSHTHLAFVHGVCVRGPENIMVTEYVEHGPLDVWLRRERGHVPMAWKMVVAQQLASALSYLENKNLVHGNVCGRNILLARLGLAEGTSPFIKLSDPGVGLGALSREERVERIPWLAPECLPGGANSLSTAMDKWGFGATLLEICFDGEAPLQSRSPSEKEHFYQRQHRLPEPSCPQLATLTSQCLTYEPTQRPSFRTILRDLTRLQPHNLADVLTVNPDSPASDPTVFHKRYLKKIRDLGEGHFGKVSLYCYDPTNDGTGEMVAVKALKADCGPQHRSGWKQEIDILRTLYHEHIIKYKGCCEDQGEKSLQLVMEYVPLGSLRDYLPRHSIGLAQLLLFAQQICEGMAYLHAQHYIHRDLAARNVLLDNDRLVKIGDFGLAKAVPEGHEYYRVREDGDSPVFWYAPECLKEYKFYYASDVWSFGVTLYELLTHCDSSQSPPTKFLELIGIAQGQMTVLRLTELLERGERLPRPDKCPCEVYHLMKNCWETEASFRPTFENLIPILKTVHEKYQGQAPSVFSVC
The target in the next test is T4, Aurora kinase A (Homo sapiens, UniProt O14965).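 Also: value from the Navigating the Kinome kinase panel profiling, panel entry STK6.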
T4 sequence (O14965 whole entry): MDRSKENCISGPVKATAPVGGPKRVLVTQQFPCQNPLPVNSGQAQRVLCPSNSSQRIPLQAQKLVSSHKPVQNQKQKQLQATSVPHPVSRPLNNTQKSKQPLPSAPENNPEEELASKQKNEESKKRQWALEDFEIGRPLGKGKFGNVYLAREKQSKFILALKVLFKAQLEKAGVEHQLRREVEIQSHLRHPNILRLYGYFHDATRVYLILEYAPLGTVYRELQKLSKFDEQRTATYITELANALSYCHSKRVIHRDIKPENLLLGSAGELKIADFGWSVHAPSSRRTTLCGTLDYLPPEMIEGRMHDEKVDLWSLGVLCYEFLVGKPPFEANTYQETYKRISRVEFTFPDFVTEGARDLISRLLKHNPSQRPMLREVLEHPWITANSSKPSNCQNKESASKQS
The format is functional.

The target in test [9] is Vascular endothelial growth factor receptor 2 (Homo sapiens, UniProt P35968). The format is functional.
Vascular endothelial growth factor receptor 2, sequence (P35968 whole entry, canonical isoform): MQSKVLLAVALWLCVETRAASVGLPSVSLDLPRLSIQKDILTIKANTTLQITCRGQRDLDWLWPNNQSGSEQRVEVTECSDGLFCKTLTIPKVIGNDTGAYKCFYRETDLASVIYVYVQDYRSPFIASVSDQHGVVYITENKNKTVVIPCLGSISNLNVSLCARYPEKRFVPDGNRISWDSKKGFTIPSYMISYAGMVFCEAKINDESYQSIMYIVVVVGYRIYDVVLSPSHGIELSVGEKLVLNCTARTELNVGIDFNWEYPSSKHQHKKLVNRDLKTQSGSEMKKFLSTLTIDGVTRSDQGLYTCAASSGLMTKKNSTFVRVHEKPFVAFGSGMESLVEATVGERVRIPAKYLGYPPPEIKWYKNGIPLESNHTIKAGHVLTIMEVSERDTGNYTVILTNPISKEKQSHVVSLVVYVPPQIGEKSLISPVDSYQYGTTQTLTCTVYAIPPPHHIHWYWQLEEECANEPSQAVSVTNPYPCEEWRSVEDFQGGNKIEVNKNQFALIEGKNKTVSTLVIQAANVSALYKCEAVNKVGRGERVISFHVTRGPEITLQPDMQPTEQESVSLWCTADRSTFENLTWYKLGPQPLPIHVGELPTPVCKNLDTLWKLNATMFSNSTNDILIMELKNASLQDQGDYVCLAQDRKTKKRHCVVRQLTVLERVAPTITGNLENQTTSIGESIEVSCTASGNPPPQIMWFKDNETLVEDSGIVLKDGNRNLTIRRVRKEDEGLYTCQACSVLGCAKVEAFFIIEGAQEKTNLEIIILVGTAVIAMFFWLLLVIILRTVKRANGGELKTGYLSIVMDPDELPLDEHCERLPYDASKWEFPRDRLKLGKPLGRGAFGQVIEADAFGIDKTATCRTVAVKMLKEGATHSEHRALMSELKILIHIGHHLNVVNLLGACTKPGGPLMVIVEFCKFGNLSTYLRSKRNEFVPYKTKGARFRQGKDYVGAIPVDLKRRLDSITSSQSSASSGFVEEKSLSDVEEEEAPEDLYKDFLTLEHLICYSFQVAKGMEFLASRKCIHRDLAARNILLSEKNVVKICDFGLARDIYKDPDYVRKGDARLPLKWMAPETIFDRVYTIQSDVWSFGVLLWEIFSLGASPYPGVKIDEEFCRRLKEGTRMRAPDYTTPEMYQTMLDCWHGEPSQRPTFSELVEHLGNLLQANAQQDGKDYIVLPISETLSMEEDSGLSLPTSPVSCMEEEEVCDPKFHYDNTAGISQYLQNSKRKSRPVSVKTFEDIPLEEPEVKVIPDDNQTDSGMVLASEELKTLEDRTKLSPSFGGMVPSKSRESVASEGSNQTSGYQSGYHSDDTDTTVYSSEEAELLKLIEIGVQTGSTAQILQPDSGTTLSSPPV
Test [10] deals with Phosphorylase b kinase gamma catalytic chain, liver/testis isoform (Homo sapiens, UniProt P15735). It counts as functional.
Phosphorylase b kinase gamma catalytic chain, liver/testis isoform, sequence (P15735 whole entry, canonical isoform): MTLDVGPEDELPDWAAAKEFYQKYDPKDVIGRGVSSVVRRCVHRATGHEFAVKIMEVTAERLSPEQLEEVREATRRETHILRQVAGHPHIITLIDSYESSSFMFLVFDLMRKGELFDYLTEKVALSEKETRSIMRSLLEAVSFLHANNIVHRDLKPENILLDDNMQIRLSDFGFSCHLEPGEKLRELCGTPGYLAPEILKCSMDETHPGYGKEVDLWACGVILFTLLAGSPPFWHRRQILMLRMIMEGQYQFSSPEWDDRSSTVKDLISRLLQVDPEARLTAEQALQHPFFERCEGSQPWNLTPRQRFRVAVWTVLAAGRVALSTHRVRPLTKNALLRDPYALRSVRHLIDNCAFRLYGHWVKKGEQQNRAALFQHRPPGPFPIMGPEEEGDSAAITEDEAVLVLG
Test [11] has as its target Serine/threonine-protein kinase Chk1 (Homo sapiens, UniProt O14757). It counts as functional.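 Also: measured as one member of a kinome-wide kinase profiling panel.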
Test [12] has as its target Serine/threonine-protein kinase PAK 4 (Homo sapiens, UniProt O96013). It counts as functional.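 Also: value obtained within a kinome profiling panel in which PAK4 was one of the panel members.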
Another test addresses LIM domain kinase 1 (Homo sapiens, UniProt P53667). The test is described as follows: Navigating the Kinome. Panel member name: LIMK1. The format is functional.

SMILES strings stand for the structures. Activity calls are given as the source filed them.

Serine/threonine-protein kinase Chk1, sequence (O14757 whole entry): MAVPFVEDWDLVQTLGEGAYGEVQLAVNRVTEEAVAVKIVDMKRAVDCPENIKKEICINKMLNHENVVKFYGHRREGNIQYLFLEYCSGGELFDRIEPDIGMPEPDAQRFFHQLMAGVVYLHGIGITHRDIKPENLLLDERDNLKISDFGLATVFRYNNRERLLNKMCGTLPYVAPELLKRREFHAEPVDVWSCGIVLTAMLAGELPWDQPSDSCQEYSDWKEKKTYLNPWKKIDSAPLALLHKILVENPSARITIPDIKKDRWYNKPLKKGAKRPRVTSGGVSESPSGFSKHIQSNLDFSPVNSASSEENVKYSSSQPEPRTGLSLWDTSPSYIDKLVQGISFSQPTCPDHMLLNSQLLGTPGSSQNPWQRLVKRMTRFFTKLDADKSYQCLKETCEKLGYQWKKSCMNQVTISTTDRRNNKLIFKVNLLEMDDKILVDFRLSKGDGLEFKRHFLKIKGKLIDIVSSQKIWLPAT
Serine/threonine-protein kinase PAK 4, sequence (O96013 whole entry, the tested form may be a part): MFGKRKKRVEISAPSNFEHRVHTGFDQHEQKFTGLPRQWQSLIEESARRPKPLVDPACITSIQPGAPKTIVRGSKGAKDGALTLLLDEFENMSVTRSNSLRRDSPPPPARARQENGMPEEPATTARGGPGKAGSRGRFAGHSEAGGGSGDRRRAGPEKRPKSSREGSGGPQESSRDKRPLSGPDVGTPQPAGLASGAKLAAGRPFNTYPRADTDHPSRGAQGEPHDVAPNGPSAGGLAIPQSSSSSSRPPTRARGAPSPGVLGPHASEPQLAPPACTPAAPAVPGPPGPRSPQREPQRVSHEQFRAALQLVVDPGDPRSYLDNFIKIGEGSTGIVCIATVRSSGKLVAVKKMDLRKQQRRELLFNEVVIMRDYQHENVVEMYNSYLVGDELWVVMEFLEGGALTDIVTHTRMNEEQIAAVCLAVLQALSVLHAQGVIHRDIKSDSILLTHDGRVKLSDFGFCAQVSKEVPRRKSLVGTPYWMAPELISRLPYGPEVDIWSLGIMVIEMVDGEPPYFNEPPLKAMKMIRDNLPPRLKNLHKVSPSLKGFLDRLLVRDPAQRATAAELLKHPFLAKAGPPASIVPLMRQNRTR
LIM domain kinase 1, sequence (P53667 whole entry, the tested form may be a part): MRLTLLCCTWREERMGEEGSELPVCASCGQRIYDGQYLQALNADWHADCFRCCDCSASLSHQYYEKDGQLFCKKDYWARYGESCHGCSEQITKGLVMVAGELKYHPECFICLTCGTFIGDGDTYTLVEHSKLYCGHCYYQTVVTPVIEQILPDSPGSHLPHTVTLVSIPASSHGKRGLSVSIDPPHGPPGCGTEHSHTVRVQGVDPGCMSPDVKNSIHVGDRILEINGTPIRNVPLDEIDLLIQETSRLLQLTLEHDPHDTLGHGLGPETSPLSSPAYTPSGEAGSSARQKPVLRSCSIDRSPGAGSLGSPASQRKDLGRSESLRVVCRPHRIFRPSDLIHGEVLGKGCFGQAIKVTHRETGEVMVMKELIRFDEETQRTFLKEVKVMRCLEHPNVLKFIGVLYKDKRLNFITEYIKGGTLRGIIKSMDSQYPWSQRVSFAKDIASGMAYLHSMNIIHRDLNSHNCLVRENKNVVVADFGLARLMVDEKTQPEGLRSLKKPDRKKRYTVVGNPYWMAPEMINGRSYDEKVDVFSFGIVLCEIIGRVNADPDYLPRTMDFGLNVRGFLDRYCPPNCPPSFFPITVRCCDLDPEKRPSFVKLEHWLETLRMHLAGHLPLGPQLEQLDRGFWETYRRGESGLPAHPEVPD

On to `O=[N+]([O-])c1c(Nc2ccccn2)cc(Cl)c2nonc12`, for which the AC50 in [1] is 1.93 µM (active); at Caspase-3 it was 7.84 µM (active); in the test on INS1 it was 6.13 µM (active). Moreover, the values for the concentration for a half-maximal effect (EC50) (in the test with BJ; in [2]) were 3.95 µM (inconclusive) and 3.55 µM (active), respectively.

For the compound `CC[C@@H](C)[C@H](CNC)NC[C@@H](Cc1cccc2ccccc12)NCCc1cccc(C(F)(F)F)c1`, the results for the EC50 (in test [3]; with HEK293) were 9.44 µM (active) and > 54.7 µM (inactive), respectively. Further, the half-maximal activity concentration (AC50) in [4] was 9.13 µM (active). Besides, the IC50 in test [5] was > 20 µM (inactive).

Take `CC(C)(CO)CNc1nccc(-c2c(-c3ccc(F)cc3)nc3c(CC4CC4)nccn23)n1`: the Ki in test [6] was > 3.98 µM (inactive); in test [7] it was > 10 µM (inactive); in test [8], > 2 µM (inactive); at Aurora kinase A it was > 3.98 µM (inactive); in test [9], > 7.94 µM (inactive); in [10], > 5.01 µM (inactive). Moreover, the Ki in test [11] was > 7.94 µM (inactive); in test [12], > 5.01 µM (inactive); at LIM domain kinase 1, 0.126 µM (active).

The AC50 is the concentration at which the activity in the assay is half-maximal. As usually defined, the EC50 is the concentration that produces a half-maximal response. The term IC50 denotes the point on the concentration scale where inhibition reaches its midpoint. The Ki is the dissociation constant of the complex between target and ligand, obtained from inhibition or displacement.
